Structures can show the parent of a compound that is named as a salt.
Experiments:
Stable Detrusor [1] = assay: Urodynamic studies, filling and voiding phase of the bladder (water cystometrogram), stable detrusor; format: in vivo, women; details: for Compliance (compliance of the detrusor muscle) / P (maxflow): bladder pressure at maximum urine flow rate / P (opening): bladder pressure at the patient's initiating urination / P (voiding): bladder voiding pressure / Q (max) / R.U. / V (1st sense): bladder urine volume at the patient's first sensation to urinate / V (Urge): bladder urine volume at the patient's urge to urinate / V (max): maximum bladder urine volume: stable detrusor
Experimental: (§1) Urodynamic studies were performed on 20 women having a mean age of 28 + 7 years. These studies incorporated water cystometrogram, UPP, and isometric tests. Control urodynamic testing without use of thiphenamil hydrochloride was undertaken in all subjects. The effects of a single dose of 400 mg and a single dose of 800 mg of thiphenamil hydrochloride given orally were compared with the control value for each subject. Specifically, the measurements taken included bladder capacity, residual volume, maximum detrusor voiding pressure, and isometric contractility during bladder filling and at bladder capacity. '
(§2) Referring to Figure 1, data is shown taken from a subject having normal detrusor activity. The parameters measured include isometric detrusor pressure during bladder filling and while voiding under control conditions, EMG and . urine flow rate. Typical segments of a polygraph recording were obtained at a bladder volume of 100 ml (segment A), 200 ml (segment B) and the voiding at 30C ml (segment C). The parameters shown are detrusor pressure in cm H20, EMG (electromyogram) recording showing muscle electrical activity and urine flow rate.

Unstable Detrusor [2] = assay: Isometric test: maximum isometric pressure as a function of bladder volume, unstable detrusor; format: in vivo, women; details: for I (100): maximum isometric pressure: bladder urine volume 100 ml; for I (200): maximum isometric pressure: bladder urine volume 200 ml; for I (300): maximum isometric pressure: bladder urine volume 300 ml
Experimental: as §1

Stable Detrusor [3] = assay: Isometric test: maximum isometric pressure as a function of bladder volume, stable detrusor; format: in vivo, women; details: for I (100): maximum bladder isometric pressure / I (200): maximum bladder isometric pressure / I (300): maximum bladder isometric pressure / I (400): maximum bladder isometric pressure / I (500): maximum bladder isometric pressure / V (1st sense): bladder urine volume at the patient's first sensation to urinate / V (Max): maximum bladder urine volume / V (Urge): bladder urine volume at the patient's urge to urinate: stable detrusor; for I (100): maximum bladder isometric pressure: bladder urine volume 100 ml; for I (200): maximum bladder isometric pressure: bladder urine volume 200 ml; for I (300): maximum bladder isometric pressure: bladder urine volume 300 ml; for I (400): maximum bladder isometric pressure: bladder urine volume 400 ml; for I (500): maximum bladder isometric pressure: bladder urine volume 500 ml; for V (1st sense): bladder urine volume at the patient's first sensation to urinate / V (Max): maximum bladder urine volume / V (Urge): bladder urine volume at the patient's urge to urinate: isometric test
Experimental: as §1, §2

Hydrolysis in water = format: physicochemical
Unstable Detrusor [4] = assay: Urodynamic studies, filling and voiding phase of the bladder (water cystometrogram), unstable detrusor; format: in vivo, women; details: for Compliance (compliance of the detrusor muscle) / P (maxflow): bladder pressure at maximum urine flow rate / P (opening): bladder pressure at the patient's initiating urination / P (voiding): bladder voiding pressure / Q (max) / R.U. / V (1st sense): bladder urine volume at the patient's first sensation to urinate / V (Urge): bladder urine volume at the patient's urge to urinate / V (max): maximum bladder urine volume: unstable detrusor
Experimental: as §1
Figure 3 illustrates the voiding phase of the cystometrogram for a subject having an unstable detrusor muscle. Spontaneous detrusor contractions are shown to precipitate voiding at a bladder urine volume of about 210 ml. The onset of voiding is associated with involuntary contractions (series of detrusor pressure peaks between 0 and 50 seconds) that are suppressed by increased EMG activity.

[5] = isometric test, single oral dose 400 mg
[6] = one subject with unstable detrusor, 400 mg dose 30 minutes prior to recording

In the case of `CCN(CC)CCSC(=O)C(c1ccccc1)c1ccccc1` [Thiphenamil Hydrochloride, thiphenamil hydrochloride], the detrusor muscle contractility (Stable Detrusor [1]; decrease from control 41.3 + 15.3, dose not stated in the sentence (matches P (voiding), 400 mg, Table 1)) is reported as 37.2 + 16.0 cm H20, the “Compliance (compliance of the detrusor muscle)” value (from here on “Compliance”) (Stable Detrusor [1]; single oral dose 400 mg) is reported as 0.002±0.001 liters/cm H2O and the “P (maxflow): bladder pressure at maximum urine flow rate” value (from here on “P (maxflow): bladder pressure”) (Stable Detrusor [1]; single oral dose 400 mg) is reported as 37.9±9.1 (19) cm H2O. For the same molecule, the “P (opening): bladder pressure at the patient's initiating urination” value (“P (opening): bladder pressure” below) (Stable Detrusor [1]; single oral dose 400 mg) was 25.4±13.3 (19) cm H2O, the “P (voiding): bladder voiding pressure” value (Stable Detrusor [1]; single oral dose 400 mg) was 37.2±16 (20) cm H2O and the “Q (max)” value (Stable Detrusor [1]; single oral dose 400 mg) was 16.7±4.4 (21). For the same molecule, the R.U. (Stable Detrusor [1]; single oral dose 400 mg) was 132.3±121.4 (18), the “V (1st sense): bladder urine volume at the patient's first sensation to urinate” value (from here on “V (1st sense): bladder urine volume”) (Stable Detrusor [1]; single oral dose 400 mg) was 314±99 (19) ml and the “V (Urge): bladder urine volume at the patient's urge to urinate” value (“V (Urge): bladder urine volume” below) (Stable Detrusor [1]; single oral dose 400 mg) was 551±195 (19) ml. For the same molecule, the “V (max): maximum bladder urine volume” value (Stable Detrusor [1]; single oral dose 400 mg) was 581+155 (19) ml, the “Compliance” value (Stable Detrusor [1]; single oral dose 800 mg) was 0.0025±0.003 liters/cm H2O and the “P (maxflow): bladder pressure” value (Stable Detrusor [1]; single oral dose 800 mg) was 49.5±14.8 (11) cm H2O. The “P (opening): bladder pressure” value (Stable Detrusor [1]; single oral dose 800 mg) was 39.1±12.2 (7) cm H2O, the “P (voiding): bladder voiding pressure” value (Stable Detrusor [1]; single oral dose 800 mg) was 65.1±19.1 (11) cm H2O and the “Q (max)” value (Stable Detrusor [1]; single oral dose 800 mg) was 27.7±9.0 (8). For the same molecule, the R.U. (Stable Detrusor [1]; single oral dose 800 mg) was 95.0±72.2 (9), the “V (1st sense): bladder urine volume” value (Stable Detrusor [1]; single oral dose 800 mg) was 298±67.6 (11) ml and the “V (Urge): bladder urine volume” value (Stable Detrusor [1]; single oral dose 800 mg) was 381±61 (11) ml. For the same molecule, the “V (max): maximum bladder urine volume” value (Stable Detrusor [1]; single oral dose 800 mg) was 436±165 (11) ml, the bladder capacity (Stable Detrusor [1]; versus control) was “no significant increase” and the “I (100): maximum isometric pressure” value (Unstable Detrusor [2]; single oral dose 400 mg) was 73±39 (14) cm H2O. The “I (100): maximum isometric pressure” value (Unstable Detrusor [2]; single oral dose 800 mg) was 78±53 cm H2O, the “I (200): maximum isometric pressure” value (Unstable Detrusor [2]; single oral dose 400 mg) was 44±14 (3) cm H2O and the “I (200): maximum isometric pressure” value (Unstable Detrusor [2]; single oral dose 800 mg) was 62±57 cm H2O. For the same molecule, the “I (300): maximum isometric pressure” value (Unstable Detrusor [2]; single oral dose 400 mg) was 75±5 (2) cm H2O, the “I (300): maximum isometric pressure” value (Unstable Detrusor [2]; single oral dose 800 mg) was 96 (1) cm H2O and the “V (1st sense): bladder urine volume” value (Unstable Detrusor [2]; [5]) was 270+99 (4) ml. The “V (Urge): bladder urine volume” value (Unstable Detrusor [2]; [5]) was 355±53 (4) ml, the “V (Urge): bladder urine volume” value (Unstable Detrusor [2]; isometric test, single oral dose 800 mg) was 423 ± 27.5 mL and the “detrusor pressures in segments A and B (Figure 2 versus Figure 1)” value (Stable Detrusor [3]; one subject with normal detrusor, 400 mg dose, bladder volume 100 ml and 200 ml) was “considerably higher”. For the same molecule, the “isometric detrusor pressure during the filling phase of the bladder” value (Stable Detrusor [3]; significant increase from control 36.1 + 26.9, dose not stated in the sentence (matches I (100), 400 mg, Table II)) was 63.0 + 27.1 cm 1120, the “I (100): maximum bladder isometric pressure” value (Stable Detrusor [3]; single oral dose 400 mg) was 63.0±27.1 (13) cm H2O and the “I (100): maximum bladder isometric pressure” value (Stable Detrusor [3]; single oral dose 800 mg) was 74±34.6 (6) cm H2O. The “I (200): maximum bladder isometric pressure” value (Stable Detrusor [3]; single oral dose 400 mg) was 51.9±26.0 (14) cm H2O, the “I (200): maximum bladder isometric pressure” value (Stable Detrusor [3]; single oral dose 800 mg) was 65.0±37.8 (7) cm H2O and the “I (300): maximum bladder isometric pressure” value (Stable Detrusor [3]; single oral dose 400 mg) was 50.3±25.8 (12) cm H2O. For the same molecule, the “I (300): maximum bladder isometric pressure” value (Stable Detrusor [3]; single oral dose 800 mg) was 63.4±26.2 (7) cm H2O, the “I (400): maximum bladder isometric pressure” value (Stable Detrusor [3]; single oral dose 400 mg) was 46.6±19.5 (10) cm H2O and the “I (400): maximum bladder isometric pressure” value (Stable Detrusor [3]; single oral dose 800 mg) was 50.0±27.5 (6) cm H2O. For the same molecule, the “I (500): maximum bladder isometric pressure” value (Stable Detrusor [3]; single oral dose 400 mg) was 30.1±15.6 (8) cm H2O, the “I (500): maximum bladder isometric pressure” value (Stable Detrusor [3]; single oral dose 800 mg) was 34.0±14.4 (2) cm H2O and the “V (1st sense): bladder urine volume” value (Stable Detrusor [3]; single oral dose 400 mg) was 358±106 (18) ml. The “V (Max): maximum bladder urine volume” value (Stable Detrusor [3]; single oral dose 400 mg) was 544±151 (11) ml, the “V (Urge): bladder urine volume” value (Stable Detrusor [3]; single oral dose 400 mg) was 467±94 (18) ml and the “V (1st sense): bladder urine volume” value (Stable Detrusor [3]; single oral dose 800 mg) was 253.3±96.9 (6) ml. The “V (Max): maximum bladder urine volume” value (Stable Detrusor [3]; single oral dose 800 mg) was 425±82 (10) ml, the “V (Urge): bladder urine volume” value (Stable Detrusor [3]; single oral dose 800 mg) was 385±74.6 (7) ml and the “stability in water (hydrolysis)” value (Hydrolysis in water) was “slowly hydrolizes in water”. The “detrusor instability (range of fluctuations of the EMG tracing, Figure 4)” value (Unstable Detrusor [4]; [6]) was “nearly eliminated”, the “height of the detrusor pressure peaks before voiding, Figure 4 versus Figure 3” value (Unstable Detrusor [4]; [6]) was “general decrease in the height of those peaks” and the “pattern of detrusor instability (series of increasing detrusor pressure peaks leading up to voiding), Figure 4 versus Figure 3” value (Unstable Detrusor [4]; [6]) was “shifted significantly to the right”. The “voiding (Figure 4)” value (Unstable Detrusor [4]; [6]) was “voluntary and complete”, the “Compliance” value (Unstable Detrusor [4]; single oral dose 400 mg) was 0.002±0.001 liters/cm H2O and the “P (maxflow): bladder pressure” value (Unstable Detrusor [4]; single oral dose 400 mg) was 44.0±4.4 (3) cm H2O. The “P (opening): bladder pressure” value (Unstable Detrusor [4]; single oral dose 400 mg) was 30±12 (4) cm H2O, the “P (voiding): bladder voiding pressure” value (Unstable Detrusor [4]; single oral dose 400 mg) was 47±7 (4) cm H2O and the “Q (max)” value (Unstable Detrusor [4]; single oral dose 400 mg) was 15±1.9. For the same molecule, the R.U. (Unstable Detrusor [4]; single oral dose 400 mg) was 140±85 (2), the “V (1st sense): bladder urine volume” value (Unstable Detrusor [4]; single oral dose 400 mg) was 270±99 (3) ml and the “V (Urge): bladder urine volume” value (Unstable Detrusor [4]; single oral dose 400 mg) was 345 ± 191 mL. For the same molecule, the “V (max): maximum bladder urine volume” value (Unstable Detrusor [4]; single oral dose 400 mg) was 440±57 (2) ml, the “Compliance” value (Unstable Detrusor [4]; single oral dose 800 mg) was 0.0027±0.0004 liters/cm H2O and the “P (maxflow): bladder pressure” value (Unstable Detrusor [4]; single oral dose 800 mg) was 55.3±7.0 (3) cm H2O. The “P (opening): bladder pressure” value (Unstable Detrusor [4]; single oral dose 800 mg) was 44±11.3 (2) cm H2O, the “P (voiding): bladder voiding pressure” value (Unstable Detrusor [4]; single oral dose 800 mg) was 52.7±6.4 (3) cm H2O and the “Q (max)” value (Unstable Detrusor [4]; single oral dose 800 mg) was 18.0±1.8 (3). For the same molecule, the R.U. (Unstable Detrusor [4]; single oral dose 800 mg) was 27.5±3.5 (3), the “V (1st sense): bladder urine volume” value (Unstable Detrusor [4]; single oral dose 800 mg) was 275±35 (3) ml and the “V (Urge): bladder urine volume” value (Unstable Detrusor [4]; single oral dose 800 mg) was 325±35 (2) ml. For the same molecule, the “V (max): maximum bladder urine volume” value (Unstable Detrusor [4]; single oral dose 800 mg) was 499±177 (3) ml.
